Laboratory results taken from article PMC12068008 (International Journal of Molecular Sciences, 2024).

Molecular target: Na^+, K^+-ATPase
Assay: Na+,K+-ATPase assay (orthophosphate release)
Type: biochemical, porcine
Description: Na^+, K^+-ATPase activity was assessed using a modified version of the method by Seals et al., based on measuring the change in orthophosphate concentration released during ATP hydrolysis. The incubation mixture was prepared at 50 mM TRIS-HCl (pH 7.4), containing 5 mM MgCl2, 100 mM NaCl, 20 mM KCl, 25 μL of 5mg/mL commercial enzyme solution, and 20 μL of an inhibitor solution at a certain concentration. After preincubating the mixture for 10 min at 37 °C, the reaction was initiated by adding 20 μL of 20 mM ATP. The reaction proceeded for 10 min at 37 °C before being terminated by adding 22 μL of 3 M cold perchloric acid, with the tube then placed on ice. In the blank sample, the incubation mixture contained only TRIS buffer (pH 7.4) without MgCl2, NaCl, or KCl. The reaction volume was adjusted to a final volume of 200 μL, after which 4.5 mL of water was added. Released orthophosphate was quantified using a colorimetric reaction with 200 μL of 0.2 M ammonium molybdate in 30% sulfuric acid and one drop of 2.5% SnCl2 in glycerol. Total ATPase activity was determined by measuring the absorbance of solution at 690 nm. Enzyme activity was expressed as relative enzyme activity (REA), defined as the percentage of Na^+, K^+-ATPase activity remaining in comparison to samples without inhibitor (control activity).

COc1cc2c(cc1OC)CN(Cc1c(O)cc(O)c3c(=O)c(O)c(-c4ccc(O)c(O)c4)oc13)CC2 [Compound 2b]
IC50 (37 °C): 970 nM
Percentage Inhibition Na^+, K^+-ATPase (at 1 × 10^−4 M, 37 °C): 100%
fold decrease in IC50 toward Na^+, K^+-ATPase compared to bare quercetin (versus quercetin): 50 fold
